In article PMC4367896, “Microbial host selection affects intracellular localization and activity of alcohol-O-acetyltransferase” (Microbial Cell Factories, 2015):

Assays:
Details in all cases: 500 mM ethanol, 0.5 mM acetyl-CoA, pH 7.4, 30 °C
[1] = biological target: T1, Atf-S.p (Saccharomyces pastorianus, UniProt Q12678); assay: headspace GC of ethyl acetate, whole cell lysate; type: biochemical
T1 construct: gene ATF1_2; C-terminal GFP fusion (reporter); expressed in S. cerevisiae (pYSPG) and E. coli BL21(DE3) (pSPG)
T1 sequence (Q12678 1-545): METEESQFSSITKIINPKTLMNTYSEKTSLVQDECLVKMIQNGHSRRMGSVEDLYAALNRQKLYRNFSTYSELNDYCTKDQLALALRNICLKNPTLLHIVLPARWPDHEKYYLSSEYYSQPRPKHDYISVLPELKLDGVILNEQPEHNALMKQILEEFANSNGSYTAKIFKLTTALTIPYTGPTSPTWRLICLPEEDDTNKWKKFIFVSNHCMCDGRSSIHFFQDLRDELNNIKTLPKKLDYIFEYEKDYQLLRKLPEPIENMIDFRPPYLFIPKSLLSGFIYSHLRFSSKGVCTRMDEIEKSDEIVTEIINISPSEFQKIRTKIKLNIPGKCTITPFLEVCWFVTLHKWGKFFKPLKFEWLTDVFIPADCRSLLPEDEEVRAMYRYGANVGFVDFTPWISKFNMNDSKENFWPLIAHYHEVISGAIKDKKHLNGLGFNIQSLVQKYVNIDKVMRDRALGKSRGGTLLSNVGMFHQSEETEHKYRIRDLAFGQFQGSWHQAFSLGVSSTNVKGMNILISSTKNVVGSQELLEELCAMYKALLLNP

[2] = biological target: T2, Atf1-S.c (Saccharomyces cerevisiae, UniProt P40353)
T2 sequence (P40353 1-525): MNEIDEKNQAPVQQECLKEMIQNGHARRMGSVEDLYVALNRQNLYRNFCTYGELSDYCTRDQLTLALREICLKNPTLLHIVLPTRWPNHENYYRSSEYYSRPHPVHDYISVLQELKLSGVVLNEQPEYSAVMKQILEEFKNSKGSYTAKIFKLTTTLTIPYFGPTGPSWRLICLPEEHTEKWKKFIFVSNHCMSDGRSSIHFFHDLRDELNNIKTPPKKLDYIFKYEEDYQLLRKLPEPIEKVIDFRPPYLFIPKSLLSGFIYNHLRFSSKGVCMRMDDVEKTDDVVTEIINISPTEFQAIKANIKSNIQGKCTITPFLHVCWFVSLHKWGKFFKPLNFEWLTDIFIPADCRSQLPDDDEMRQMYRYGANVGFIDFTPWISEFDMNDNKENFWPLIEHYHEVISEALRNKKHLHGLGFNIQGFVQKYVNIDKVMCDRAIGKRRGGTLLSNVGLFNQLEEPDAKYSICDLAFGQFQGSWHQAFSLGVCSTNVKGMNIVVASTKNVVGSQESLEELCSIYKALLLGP

[3] = biological target: T3, Atf-P.a (Hansenula anomala, UniProt H6UWN0); assay: headspace GC of ethyl acetate, whole cell lysate; type: biochemical
T3 construct: gene WAN_10494; C-terminal GFP fusion (reporter); expressed in S. cerevisiae (pYPAG) and E. coli BL21(DE3) (pPAG)
T3 sequence (H6UWN0 1-427): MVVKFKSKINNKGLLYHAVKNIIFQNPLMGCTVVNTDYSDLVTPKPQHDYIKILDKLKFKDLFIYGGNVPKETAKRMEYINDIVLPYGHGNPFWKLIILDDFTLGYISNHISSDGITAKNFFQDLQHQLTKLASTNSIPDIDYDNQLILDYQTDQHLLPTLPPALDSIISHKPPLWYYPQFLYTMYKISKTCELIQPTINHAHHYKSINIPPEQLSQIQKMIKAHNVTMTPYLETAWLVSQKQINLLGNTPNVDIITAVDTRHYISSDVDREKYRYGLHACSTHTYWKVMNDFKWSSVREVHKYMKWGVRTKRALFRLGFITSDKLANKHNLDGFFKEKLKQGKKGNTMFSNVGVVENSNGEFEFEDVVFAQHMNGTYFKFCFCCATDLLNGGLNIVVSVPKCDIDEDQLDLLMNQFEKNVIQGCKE

[4] = biological target: T4, Atf2-S.c (Saccharomyces cerevisiae, UniProt P53296)
T4 sequence (P53296 1-535): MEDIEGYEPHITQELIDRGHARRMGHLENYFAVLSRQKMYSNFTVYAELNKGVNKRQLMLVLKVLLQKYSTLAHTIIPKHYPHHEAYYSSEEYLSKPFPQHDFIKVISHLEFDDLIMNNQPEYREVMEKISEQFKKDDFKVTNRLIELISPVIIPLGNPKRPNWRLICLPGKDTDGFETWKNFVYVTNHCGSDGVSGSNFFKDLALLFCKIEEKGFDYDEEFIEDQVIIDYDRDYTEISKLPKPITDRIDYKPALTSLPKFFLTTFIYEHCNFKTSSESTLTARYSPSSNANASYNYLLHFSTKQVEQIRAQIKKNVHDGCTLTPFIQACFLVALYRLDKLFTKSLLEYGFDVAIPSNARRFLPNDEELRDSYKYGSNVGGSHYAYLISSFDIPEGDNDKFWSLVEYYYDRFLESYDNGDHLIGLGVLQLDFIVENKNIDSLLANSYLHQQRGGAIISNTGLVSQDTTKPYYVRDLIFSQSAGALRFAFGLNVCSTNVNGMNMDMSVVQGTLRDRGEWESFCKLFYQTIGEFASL

[5] = biological target: T5, Atf-S.l (Solanum lycopersicum, UniProt Q6QLX4); assay: headspace GC of ethyl acetate, whole cell lysate; type: biochemical
T5 construct: gene AAT1; C-terminal GFP fusion (reporter); expressed in S. cerevisiae (pYSLG) and E. coli BL21(DE3) (pSLG); N-terminus from primer MANILPI
T5 sequence (Q6QLX4 1-442): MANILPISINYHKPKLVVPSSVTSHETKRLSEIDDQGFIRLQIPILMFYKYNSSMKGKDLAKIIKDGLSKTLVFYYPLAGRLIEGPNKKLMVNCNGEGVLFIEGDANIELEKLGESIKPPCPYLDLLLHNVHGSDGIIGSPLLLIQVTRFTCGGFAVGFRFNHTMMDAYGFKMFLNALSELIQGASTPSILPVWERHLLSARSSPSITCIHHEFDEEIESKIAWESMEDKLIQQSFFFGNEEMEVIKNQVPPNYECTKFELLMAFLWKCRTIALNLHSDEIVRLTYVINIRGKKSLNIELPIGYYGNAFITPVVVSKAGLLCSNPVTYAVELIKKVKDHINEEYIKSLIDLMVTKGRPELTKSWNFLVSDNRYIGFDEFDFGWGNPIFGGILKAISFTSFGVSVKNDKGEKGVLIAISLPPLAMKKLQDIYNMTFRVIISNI

[6] = biological target: T6, Atf-K.l (Kluyveromyces lactis, UniProt Q6CJX7); assay: headspace GC of ethyl acetate, whole cell lysate; type: biochemical
T6 construct: gene KLLA0_F15202g; C-terminal GFP fusion (reporter); expressed in S. cerevisiae (pYKLG) and E. coli BL21(DE3) (pKLG)
T6 sequence (Q6CJX7 1-517): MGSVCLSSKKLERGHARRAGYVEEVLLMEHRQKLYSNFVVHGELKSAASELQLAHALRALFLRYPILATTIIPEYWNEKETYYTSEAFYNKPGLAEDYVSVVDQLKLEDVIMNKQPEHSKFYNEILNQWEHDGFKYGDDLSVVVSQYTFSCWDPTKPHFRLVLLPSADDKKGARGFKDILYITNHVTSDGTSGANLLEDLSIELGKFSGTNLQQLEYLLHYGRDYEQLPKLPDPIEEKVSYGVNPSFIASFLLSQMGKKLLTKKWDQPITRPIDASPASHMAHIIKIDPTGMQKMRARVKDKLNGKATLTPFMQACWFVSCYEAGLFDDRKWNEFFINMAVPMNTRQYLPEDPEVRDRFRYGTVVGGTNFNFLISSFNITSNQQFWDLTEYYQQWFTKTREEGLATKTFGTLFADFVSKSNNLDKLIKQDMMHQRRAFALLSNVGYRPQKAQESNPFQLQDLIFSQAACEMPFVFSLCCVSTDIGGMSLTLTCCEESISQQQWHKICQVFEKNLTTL

## CC(=O)SCCNC(=O)CCNC(=O)[C@H](O)C(C)(C)COP(=O)(O)OP(=O)(O)OC[C@H]1O[C@@H](n2cnc3c(N)ncnc32)[C@H](O)[C@@H]1OP(=O)(O)O [acetyl-CoA]
[1]
  headspace GC of ethyl acetate, whole cell lysate: AATase activity was measured using ethanol and acetyl-CoA as substrates
[2]
  headspace GC of ethyl acetate, whole cell lysate: AATase activity was measured using ethanol and acetyl-CoA as substrates
[3]
  headspace GC of ethyl acetate, whole cell lysate: AATase activity was measured using ethanol and acetyl-CoA as substrates
[4]
  headspace GC of ethyl acetate, whole cell lysate: AATase activity was measured using ethanol and acetyl-CoA as substrates
[5]
  headspace GC of ethyl acetate, whole cell lysate: AATase activity was measured using ethanol and acetyl-CoA as substrates
[6]
  headspace GC of ethyl acetate, whole cell lysate: AATase activity was measured using ethanol and acetyl-CoA as substrates
